Read-outs that look alike come from different tables or passages of the source.
Key:
vomiting response = test: Anti-emetic activity in the dog (apomorphine induced vomiting); assay type: in vivo; design: key to II Anti-Emetic Activity Dose, slight activity (footnote *): *: slight at 5 × 10^-4; conditions: s.c.; for ED100: Canis lupus familiaris, 30 min before apomorphine HCl 0.1 mg/kg s.c., complete inhibition, read-out: II Anti-Emetic Activity Dose, Complete Inhibition
Experimental: II. Anti-emetic activity in the dog
Compounds were administered subcutaneously 30 minutes prior to administration of a standard dose of apomorphine HCl (0.1 mg/kg subcutaneously) and the vomiting response compared to that obtained when the same animals were dosed with apomorphine HCl and vehicle only.

Dopamine Receptor [1] = test: Inhibition of apomorphine induced climbing in the mouse; assay type: in vivo; conditions: p.o., apomorphine 1 mg/kg s.c.
Experimental: (§1) I. Dopamine Receptor Blocking Activity in the Central Nervous System
(b) Inhibition of apomorphine induced climbing in the mouse
The test is based on that described by Protais, P., Constantin, J. and Schwartz J.C. (1976), Psychopharmacology, 50, 1-6.
Apomorphine 1 mg/kg s.c. induces mice to climb the wall of a wire cage (inverted food hopper--11×7.5×18 cm high). Mice acclimatised in their home cages in groups of 5 are placed under the hoppers immediately after the injection of apomorphine 1 mg/kg s.c. At 10,20 and 30 minutes after injection climbing behaviour is scored. The mice are observed for 30 seconds and scored according to the position they spend the majority of time in, score 0--four paws on floor of cage; score 1--fore paws only on walls; score 2--all paws on wall of cage. The scores at all 3 times and for each mouse are summed and mice drug treated orally compared to mice receiving apomorphine only. A saline only treated group is also included and any score, generally <5% of maximum taken into account.

Dopamine Receptor [2] = test: Inhibition of apomorphine induced stereotype behaviour in the rat; assay type: in vivo; design: key to I(a) Dose Inhibiting Stereotype Behaviour (slight inhibition, footnote *): *: slight at 0.05; key to I(a) Dose Inhibiting Stereotype Behaviour (slight inhibition, footnote +): +: slight at 1; conditions: s.c.; for I(a) Dose Inhibiting Stereotype Behaviour (dose for complete inhibition): apomorphine induced, IA(x) = inactive at dose in brackets
Source text: as §1
(a) Inhibition of apomorphine induced stereotype behaviour in the rat
(method of Ernst (1967), Psychopharmacologia (Berl.) 10 316-323).

gastric emptying = test: Increase in gastric emptying: reversal of apomorphine induced delay in gastric emptying in the rat; assay type: in vivo; conditions: for III(b) Increase in Gastric Emptying: 10 mg/kg s.c., apomorphine HCl 5 mg/kg s.c. induced delay
Experimental: (b) Increase in gastric emptying: reversal of apomorphine induced delay in gastric emptying in the rat
Rats equipped with chromic gastric fistulae were used and it was through this that 5 ml of a test meal (5 ml phosphate buffer at pH 9) was administered and recovered. The % recovery of the standard meal after remaining in the stomach for 10 minutes was taken as an index of gastric emptying. Delay in gastric emptying was induced by the administration of apomorphine HCl (5 mg/kg subcutaneously) which was given 15 minutes prior to the subcutaneous administration of the compound. The % recoveries of the test meal were determined at 15-25 and 45-55 minutes post-dosing with the compound and compared with vehicle only dosed animals set up simultaneously. Six animals were used for each group.

[3] = Anti-obesity activity (single compound test); assay type: in vivo
dopamine receptor [4] = molecular target: T1, dopamine receptor (Rattus norvegicus, UniProt P61169); test: In vitro displacement of radiolabelled spiroperidol from dopamine receptor membranes; assay type: binding, rat (Male Hooded Lister); conditions: for inhibition at 10 µM: 0.25 h, 10^-5 M compound, read-out: I(c) Spiroperidol Displacement % at 10^-5 M
T1 construct: the caudate nucleus is quickly dissected out; from tissue; host or cells: caudate nucleus of male Hooded Lister rats, homogenate
Experimental: (c) In vitro displacement of radiolabelled spiroperidol from dopamine receptor membranes
Therefore a compound which displaces this ligand from dopamine receptor membranes may have neuroleptic properties.
Male Hooded Lister rats (200-300 g) are decapitated and the caudate nucleus is quickly dissected out. This is homogenised in ice cold Tris buffer (pH 7.7 at 25° C.) at a concentration of 10 mg/ml wet weight of tissue. The test compound (at 10^-5 M) or spiroperidol (standard curve from 10^-5 to 10^-9 M) is added to the assay tubes followed by 0.5 nM [^3 H]-spiroperidol. This is mixed with 500 μl of the membrane preparation and the assay tubes are incubated for 15 minutes at 37° C. After this period 4 ml ice cold Tris buffer is added to each tube and the solutions are filtered through per-soaked glass fibre filters. The filter is washed twice with 4 ml of the buffer and then transferred to a scintillation vial for counting. Single concentration results are given as a percentage of [^3 H]-spiroperidol displaced.

intragastric pressure = test: Increase in intragastric pressure in the rat; assay type: in vivo; design: III(a) Increase in Intragastric Pressure Dose (minimum dose for activity): unit not given here; conditions: s.c., 40 minute period after administration
Experimental: (a) Increase in intragastric pressure in the rat
Intragastric pressure changes were recorded from previously starved conscious but restrained rats using a saline filled catheter inserted into the lumen of the stomach via a permanent gastric fistula. The catheter was connected to a physiological pressure transducer and pressure changes recorded on a hot wire pen recorder. In each animal a pre-dose period of 40 minutes was allowed to obtain a measure of spontaneous activity. An index of activity was obtained by measuring the average height of pressure waves during 10 minute periods. Values for 4 such periods were obtained during assessment of spontaneous activity and for the 40 minute period after the subcutaneous administration of the compounds. Students `t` test was applied to the difference in average values obtained for spontaneous and post-compound activity.

[5] = Anti-arrhythmic activity (single compound test)
dopamine receptor [6] = molecular target: T1, dopamine receptor; conditions: literature; cited from earlier work
[7] = 0.5 nM [3H]-spiroperidol, rat caudate nucleus membranes
[8] = 0.5 nM [3H]-spiroperidol, rat caudate nucleus membranes, read-out: I(c) Spiroperidol Displacement ED50 (concentration for 50% displacement)

T1 sequence (P61169 whole entry): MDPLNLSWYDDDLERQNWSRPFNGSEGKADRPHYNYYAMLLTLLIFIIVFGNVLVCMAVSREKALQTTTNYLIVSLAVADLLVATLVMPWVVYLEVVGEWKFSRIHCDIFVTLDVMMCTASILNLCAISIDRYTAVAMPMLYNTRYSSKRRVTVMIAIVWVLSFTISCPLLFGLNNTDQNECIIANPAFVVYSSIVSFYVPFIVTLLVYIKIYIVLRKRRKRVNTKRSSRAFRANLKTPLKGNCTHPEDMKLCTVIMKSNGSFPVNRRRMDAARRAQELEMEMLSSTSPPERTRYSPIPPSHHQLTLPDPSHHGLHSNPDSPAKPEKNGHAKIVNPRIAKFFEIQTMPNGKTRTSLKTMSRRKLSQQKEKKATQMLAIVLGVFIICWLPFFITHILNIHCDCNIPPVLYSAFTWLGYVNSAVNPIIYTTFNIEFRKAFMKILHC

Row | SMILES | ED100 (vomiting response) [mg/kg] | I(b) Anti-Climbing Activity Dose, ED50 (Dopamine Receptor [1]) [mg/kg] | I(a) Dose Inhibiting Stereotype Behaviour (dose for complete inhibition) (Dopamine Receptor [2]) | inhibition at 10 µM (dopamine receptor [4]; [7]) [%] | III(a) Increase in Intragastric Pressure Dose (minimum dose for activity) (intragastric pressure) | I(b) Anti-Climbing Activity Dose, Complete Inhibition (Dopamine Receptor [1]) | III(b) Increase in Gastric Emptying (gastric emptying) | further results
1 | COc1cc(N)c(Cl)cc1C(=O)N[C@@H]1C[C@H]2CC[C@@H](C1)N2Cc1ccccc1 [Compound 5, 4-amino-5-chloro-2-methoxy-N-(3'β-[8'-benzyl]8-azabicyclo[3.2.1]octyl)benzamide] | 0.001 | 0.03 | 0.05 mg/kg |  |  |  |  | minimal effective dose (gastric emptying; sc, read-out: dose that significantly increases gastric emptying): 0.05 mg/kg; anti-obesity activity [3]: anti-obesity activity
2 | COc1cc(N)c(Cl)cc1C(=O)N[C@@H]1C[C@H]2CCC[C@@H](C1)N2Cc1ccccc1 [Compound 12, 4-amino-5-chloro-2-methoxy-N-(3'β-[9'-benzyl-9'-azabicyclo-[3.3.1]-nonyl])-benzamide] | 0.1 |  | 0.5 mg/kg | 53 | IA(1) | 2 mg/kg |  | 
3 | COc1cc(N)c(Cl)cc1C(=O)N[C@@H]1C[C@H]2CC[C@@H](C1)N2Cc1ccc(C)cc1 [Compound 13, 4amino-5chloro-2-methoxy-N-(3β-[8'[4"methylbenzyl]-8'-azabicyclo[3.2.1]octyl])-benzamide] | 0.1 | 0.12 |  | 54 |  |  |  | 
4 | COc1cc(N)c(Cl)cc1C(=O)N[C@@H]1C[C@H]2CC[C@@H](C1)N2CCc1ccccc1 [Compound 18, 4amino-5-chloro-2-methoxy-N-(3β-[8'-β-phenethyl]-['-azabicyclo[3.2.1]octyl])-benzamide] | 0.25 |  | IA(50) |  | IA(5) | IA (inactive at 10 mg/Kg p.o.) |  | IC50 (dopamine receptor [4]; [8]): 600 nM
5 | COc1cc(N)c(Cl)cc1C(=O)N[C@@H]1C[C@H]2CC[C@@H](C1)N2C [Compound 19, 4-Amino-5-chloro-2-methoxy-N-(3'β-[8'-methy-8'-azabicyclo[3.2.1]-octyl])-benzamide] | 0.6 |  | IA(25) | 64 |  | IA (inactive at 10 mg/Kg p.o.) | 25% | minimal effective dose (intragastric pressure; sc, 40 min, read-out: III(a) Increase in Intragastric Pressure Dose (minimum dose for activity)): 1 to 10 mg/kg
6 | COc1cc(N)c(Cl)cc1C(=O)N[C@H]1C[C@H]2CC[C@@H](C1)N2C [Compound 20, 4-amino-5-chloro-2-methoxy-N-(3'α-[8'-methyl-8'-azabicyclo[3.2.1]-octyl])-benzamide] |  |  |  |  |  |  |  | anti-arrhythmic activity [5]: anti-arrhythmic activity
7 | CCCCN1[C@@H]2CC[C@H]1C[C@H](NC(=O)c1cc(Cl)c(N)cc1OC)C2 [Compound 26, 4-amino-5-chloro-2-methoxy-N-(3'β-[8'-n-butyl-8'-azabicyclo[3.2.1]-octyl])benzamide] | 0.4 | 2.9 |  |  |  |  | 1% | IC50 (dopamine receptor [4]; [8]): 400 nM; I(a) Dose Inhibiting Stereotype Behaviour (slight inhibition, footnote +) (Dopamine Receptor [2]; slight at 1): +
8 | CCCCN1[C@@H]2CC[C@H]1C[C@@H](NC(=O)c1cc(Cl)c(N)cc1OC)C2 [Compound 27, 4-amino-5-chloro-2-methoxy-N-(3'α-[8'-n-butyl-8'-azabicyclo[3.2.1]-octyl])benzamide] | 1 |  | IA(10) | 66 | IA(10) | IA (inactive at 10 mg/Kg p.o.) | IA(10) | 
9 | COc1cc(N)c(Cl)cc1C(=O)N[C@@H]1C[C@H]2CC[C@@H](C1)N2CC1CCCCC1 [Compound 30, 4-amino-5-chloro-2-methoxy-N-(3'β-[8'-cyclohexylmethyl-8'-azabicyclo-[3.2.1]-octyl])-benzamide] |  |  |  |  | IA(1) | 5 mg/kg | 0.05% | IC50 (dopamine receptor [4]): 20 nM; II Anti-Emetic Activity Dose, slight activity (footnote *) (vomiting response; slight at 5 × 10^-4): *; I(a) Dose Inhibiting Stereotype Behaviour (slight inhibition, footnote *) (Dopamine Receptor [2]; slight at 0.05): *
10 | O=C(CCCN1CCC2(CC1)C(=O)NCN2c1ccccc1)c1ccc(F)cc1 [[3H]-spiroperidol] |  |  |  |  |  |  |  | binding to dopamine receptors in the brain (dopamine receptor [6]): high affinity
